Series [1] concerns THP-1. The experiment in a line: Downregulation of IkBalpha protein expression in human THP1 cells at 10 uM after 3 hrs by Western blot analysis. Format: functional, cell-based. On the technique in general: Immunoblotting shows a protein as a band on a membrane.
For series [2], the system named is THP-1. In words: Upregulation of IKKalpha protein expression in LPS-stimulated human THP1 cells at 10 uM after 3 hrs by Western blot analysis. Format: functional, cell-based.
Series [3] has as its system AD293. In words: Effect on IkBalpha protein expression in TNFalpha-stimulated human AD293 cells at 10 uM after 3 hrs by Western blot analysis. Type of series: functional, cell-based.
The target of series [4] is T1, Toll-like receptor 4 (Homo sapiens, UniProt O00206). The experiment in a line: Antagonist activity at TLR4 in human THP1 cells assessed as increase in LPS-stimulated NFkappaB p65 phosphorylation at 10 uM after 3 hrs by Western blot analysis. Format: cell-based.
The target of series [5] is Toll-like receptor 2 (Homo sapiens) (UniProt O60603). In words: Antagonist activity at TLR2 in human THP1 cells assessed as inhibition of PGN-stimulated IL-6 mRNA level at 10 uM after 16 hrs by RT-PCR method. Format: cell-based.
The target in series [6] is T2, NF-kappa-B inhibitor alpha (Homo sapiens) (UniProt P25963).
T2 sequence (whole entry): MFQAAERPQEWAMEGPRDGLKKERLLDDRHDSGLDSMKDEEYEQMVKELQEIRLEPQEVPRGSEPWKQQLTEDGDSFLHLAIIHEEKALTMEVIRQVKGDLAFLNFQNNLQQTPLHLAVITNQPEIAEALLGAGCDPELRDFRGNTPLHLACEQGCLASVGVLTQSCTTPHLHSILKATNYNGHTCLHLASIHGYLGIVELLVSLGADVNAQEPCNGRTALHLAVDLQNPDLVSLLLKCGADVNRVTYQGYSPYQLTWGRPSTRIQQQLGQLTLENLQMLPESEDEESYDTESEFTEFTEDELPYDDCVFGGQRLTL
In words: Inhibition of TNFalpha-stimulated IkBalpha phosphorylation in human AD293 cells at 10 uM after 3 hrs by Western blot analysis. Type of series: cell-based.

Series [7] deals with AD293. In words: Cytotoxicity against human AD293 cells assessed as reduction in cell viability after 24 hrs by methylene blue dye based spectrophotometric method. Conditions: ad293, 24 h.
Series [8] addresses T1, Toll-like receptor 4. In words: Antagonist activity at TLR4 in human THP1 cells assessed as inhibition of LPS-stimulated IL-6 level at 10 uM by bead based immunoassay. Type of series: cell-based.
For series [9], the species on record is Homo sapiens. The experiment in a line: Inhibition of TNFalpha-stimulated NF-kB signaling pathway (unknown origin) expressed in human AD293 cells after 4 hrs by luciferase reporter gene assay. Type of series: cell-based. (In general: A reporter such as luciferase makes a cellular process visible.)
The target of series [10] is Toll-like receptor 3 (Homo sapiens) (UniProt O15455). In words: Antagonist activity at TLR3 in human THP1 cells assessed as inhibition of poly IC-stimulated IL-1beta level at 10 uM by bead based immunoassay. Format: cell-based.
Series [11] relates to AD293. The experiment in a line: Upregulation of IKKalpha protein expression in TNFalpha-stimulated human AD293 cells at 10 uM after 3 hrs by Western blot analysis. Format: functional, cell-based.
In series [12] the target is T1, Toll-like receptor 4. In words: Antagonist activity at TLR4 in human THP1 cells harboring human TRAF6 assessed as inhibition of LPS-stimulated IL-1beta level at 10 uM by bead based immunoassay. Format: cell-based.
The target in series [13] is Toll-like receptor 3 (Homo sapiens) (UniProt O15455). In words: Antagonist activity at TLR3 in human THP1 cells assessed as inhibition of poly IC-stimulated TNFalpha level at 10 uM by bead based immunoassay. Format: cell-based.
In series [14] the target is T1, Toll-like receptor 4. In words: Antagonist activity at TLR4 in human THP1 cells assessed as inhibition of LPS-stimulated NF-kB non-canonical signaling pathway by measuring decrease in RelB expression at 10 uM after 3 hrs by Western blot analysis. Format: cell-based.
For series [15], the target named is T1, Toll-like receptor 4. In words: Antagonist activity at TLR4 in human THP1 cells assessed as inhibition of LPS-stimulated NF-kB canonical signaling pathway by measuring decrease in IkBalpha phosphorylation at 10 uM after 3 hrs by Western blot analysis. Format: cell-based.
Series [16] addresses T1, Toll-like receptor 4. In words: Antagonist activity at TLR4 in human THP1 cells assessed as inhibition of LPS-stimulated IL-1beta level at 10 uM by bead based immunoassay. Type of series: cell-based.
In series [17] the target is T1, Toll-like receptor 4. The experiment in a line: Antagonist activity at TLR4 in human THP1 cells assessed as inhibition of LPS-stimulated IL-6 mRNA level at 10 uM after 16 hrs by RT-PCR method. Format: cell-based.
Series [18] addresses T1, Toll-like receptor 4. The experiment in a line: Antagonist activity at TLR4 in human THP1 cells assessed as inhibition of LPS-stimulated TNFalpha level at 10 uM by bead based immunoassay. Type of series: cell-based.
Series [19] concerns the target T1, Toll-like receptor 4. The experiment in a line: Antagonist activity at TLR4 in human THP1 cells harboring human TRAF6 assessed as inhibition of LPS-stimulated IL-6 level at 10 uM by bead based immunoassay. Format: cell-based.
Series [20] addresses Toll-like receptor 3 (Homo sapiens) (UniProt O15455). The experiment in a line: Antagonist activity at TLR3 in human THP1 cells assessed as inhibition of poly IC-stimulated IL-6 mRNA level at 10 uM after 16 hrs by RT-PCR method. Type of series: cell-based.
For series [21], the system named is THP-1. In words: Upregulation of IKKalpha protein expression in human THP1 cells at 10 uM after 3 hrs by Western blot analysis. Format: functional, cell-based.
Series [22] has as its target Transcription factor p65 (Homo sapiens) (UniProt Q04206). The experiment in a line: Inhibition of TNFalpha-stimulated NF-kB p65 phosphorylation (unknown origin) expressed in human AD293 cells at 10 uM after 3 hrs by Western blot analysis. Format: cell-based.
Series [23] addresses Toll-like receptor 2 (Homo sapiens) (UniProt O60603). The experiment in a line: Antagonist activity at TLR2 in human THP1 cells assessed as inhibition of PGN-stimulated RANTES mRNA level at 10 uM after 16 hrs by RT-PCR method. Format: cell-based.
For series [24], the target named is Transcription factor p65 (Homo sapiens) (UniProt Q04206). In words: Inhibition of TNFalpha-stimulated NF-kB p65 activation (unknown origin) expressed in human AD293 cells assessed as nuclear translocation of p65 at 10 uM after 3 hrs by confocal microscopic method. Type of series: cell-based.
The target of series [25] is T1, Toll-like receptor 4. In words: Antagonist activity at TLR4 (unknown origin) expressed in human AD293 cells assessed as inhibition of LPS/ATP-stimulated TLR4/NF-kB signaling pathway after 16 hrs by luciferase reporter gene assay. Type of series: cell-based.
For series [26], the target named is Toll-like receptor 2 (Homo sapiens) (UniProt O60603). In words: Antagonist activity at TLR2 in human THP1 cells assessed as inhibition of PGN-stimulated IL-1beta level at 10 uM by bead based immunoassay. Format: cell-based.
The target of series [27] is T1, Toll-like receptor 4. The experiment in a line: Antagonist activity at TLR4 in human THP1 cells harboring human TRAF6 assessed as inhibition of LPS-stimulated TNFalpha level at 10 uM by bead based immunoassay. Type of series: cell-based.
The target of series [28] is Transcription factor p65 (Homo sapiens) (UniProt Q04206). In words: Upregulation of NF-kB p65 phosphorylation (unknown origin) expressed in human AD293 cells at 10 uM after 3 hrs by Western blot analysis. Format: cell-based.
The test system of series [29] is THP-1. In words: Effect on RelB protein expression in human THP1 cells at 10 uM after 3 hrs by Western blot analysis. Type of series: functional, cell-based.
Series [30] concerns the target Toll-like receptor 3 (Homo sapiens) (UniProt O15455). In words: Antagonist activity at TLR3 in human THP1 cells assessed as inhibition of poly IC-stimulated RANTES mRNA level at 10 uM after 16 hrs by RT-PCR method. Type of series: cell-based.
Series [31] deals with THP-1. The experiment in a line: Downregulation of IkBalpha protein expression in LPS-stimulated human THP1 cells at 10 uM after 3 hrs by Western blot analysis. Type of series: functional, cell-based.
Series [32] deals with Toll-like receptor 2 (Homo sapiens) (UniProt O60603). In words: Antagonist activity at TLR2 in human THP1 cells assessed as inhibition of PGN-stimulated TNFalpha level at 10 uM by bead based immunoassay. Type of series: cell-based.
Series [33] deals with T1, Toll-like receptor 4. The experiment in a line: Antagonist activity at TLR4 in human THP1 cells assessed as inhibition of LPS-stimulated RANTES mRNA level at 10 uM after 16 hrs by RT-PCR method. Type of series: cell-based.
The test system of series [34] is AD293. The experiment in a line: Upregulation of IKKalpha protein expression in human AD293 cells at 10 uM after 3 hrs by Western blot analysis. Format: functional, cell-based.
For series [35], the target named is T1, Toll-like receptor 4. The experiment in a line: Antagonist activity at TLR4 (unknown origin) expressed in human AD293 cells assessed as inhibition of LPS/ATP-stimulated TLR4/NF-kB signaling pathway at 10 uM after 16 hrs by luciferase reporter gene assay. Type of series: cell-based.
Series [36] concerns AD293. In words: Cytotoxicity against human AD293 cells assessed as reduction in cell viability at 10 uM after 24 hrs by methylene blue dye based spectrophotometric method. The note with it: ad293, 24 h.

SMILES strings stand for the structures. Active and inactive are the calls of the source. No cut-off for these calls is given here.

Sequence of Toll-like receptor 2 (Homo sapiens) (O60603 whole entry): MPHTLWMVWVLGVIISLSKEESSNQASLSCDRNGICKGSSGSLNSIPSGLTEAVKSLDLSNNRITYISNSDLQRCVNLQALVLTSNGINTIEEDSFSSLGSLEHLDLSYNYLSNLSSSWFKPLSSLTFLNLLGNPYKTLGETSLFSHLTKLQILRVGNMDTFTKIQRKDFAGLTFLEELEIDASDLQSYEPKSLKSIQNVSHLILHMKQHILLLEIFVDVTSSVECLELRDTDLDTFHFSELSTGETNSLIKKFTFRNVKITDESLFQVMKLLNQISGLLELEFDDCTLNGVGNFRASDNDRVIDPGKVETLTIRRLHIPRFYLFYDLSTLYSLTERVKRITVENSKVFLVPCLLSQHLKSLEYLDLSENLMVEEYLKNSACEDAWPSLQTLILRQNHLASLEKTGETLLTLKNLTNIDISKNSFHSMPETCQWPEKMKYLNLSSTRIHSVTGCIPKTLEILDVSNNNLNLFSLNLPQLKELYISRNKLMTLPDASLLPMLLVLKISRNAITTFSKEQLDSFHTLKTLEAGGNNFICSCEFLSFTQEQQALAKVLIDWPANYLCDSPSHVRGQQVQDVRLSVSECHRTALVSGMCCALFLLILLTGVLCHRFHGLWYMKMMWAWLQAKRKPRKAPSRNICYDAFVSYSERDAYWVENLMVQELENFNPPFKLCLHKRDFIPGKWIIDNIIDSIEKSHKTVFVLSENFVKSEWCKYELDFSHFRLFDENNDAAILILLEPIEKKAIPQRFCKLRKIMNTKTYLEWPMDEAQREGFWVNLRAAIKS
Sequence of Transcription factor p65 (Homo sapiens) (Q04206 whole entry): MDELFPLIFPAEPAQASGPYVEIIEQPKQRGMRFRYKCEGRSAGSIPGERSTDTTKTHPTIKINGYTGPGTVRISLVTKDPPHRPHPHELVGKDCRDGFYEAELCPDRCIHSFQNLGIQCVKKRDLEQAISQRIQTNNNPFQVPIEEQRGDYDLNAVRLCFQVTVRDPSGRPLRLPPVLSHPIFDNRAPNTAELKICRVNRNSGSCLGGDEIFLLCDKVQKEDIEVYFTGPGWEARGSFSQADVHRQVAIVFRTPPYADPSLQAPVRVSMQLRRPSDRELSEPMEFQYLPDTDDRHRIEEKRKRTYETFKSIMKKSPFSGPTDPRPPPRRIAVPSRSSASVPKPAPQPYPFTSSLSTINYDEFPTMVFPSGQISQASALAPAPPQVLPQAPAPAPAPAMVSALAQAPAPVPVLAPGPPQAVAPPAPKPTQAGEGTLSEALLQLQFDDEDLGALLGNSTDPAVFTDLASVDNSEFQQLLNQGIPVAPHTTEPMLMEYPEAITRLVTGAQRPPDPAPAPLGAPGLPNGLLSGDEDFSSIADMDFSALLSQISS
Sequence of Toll-like receptor 3 (Homo sapiens) (O15455 whole entry): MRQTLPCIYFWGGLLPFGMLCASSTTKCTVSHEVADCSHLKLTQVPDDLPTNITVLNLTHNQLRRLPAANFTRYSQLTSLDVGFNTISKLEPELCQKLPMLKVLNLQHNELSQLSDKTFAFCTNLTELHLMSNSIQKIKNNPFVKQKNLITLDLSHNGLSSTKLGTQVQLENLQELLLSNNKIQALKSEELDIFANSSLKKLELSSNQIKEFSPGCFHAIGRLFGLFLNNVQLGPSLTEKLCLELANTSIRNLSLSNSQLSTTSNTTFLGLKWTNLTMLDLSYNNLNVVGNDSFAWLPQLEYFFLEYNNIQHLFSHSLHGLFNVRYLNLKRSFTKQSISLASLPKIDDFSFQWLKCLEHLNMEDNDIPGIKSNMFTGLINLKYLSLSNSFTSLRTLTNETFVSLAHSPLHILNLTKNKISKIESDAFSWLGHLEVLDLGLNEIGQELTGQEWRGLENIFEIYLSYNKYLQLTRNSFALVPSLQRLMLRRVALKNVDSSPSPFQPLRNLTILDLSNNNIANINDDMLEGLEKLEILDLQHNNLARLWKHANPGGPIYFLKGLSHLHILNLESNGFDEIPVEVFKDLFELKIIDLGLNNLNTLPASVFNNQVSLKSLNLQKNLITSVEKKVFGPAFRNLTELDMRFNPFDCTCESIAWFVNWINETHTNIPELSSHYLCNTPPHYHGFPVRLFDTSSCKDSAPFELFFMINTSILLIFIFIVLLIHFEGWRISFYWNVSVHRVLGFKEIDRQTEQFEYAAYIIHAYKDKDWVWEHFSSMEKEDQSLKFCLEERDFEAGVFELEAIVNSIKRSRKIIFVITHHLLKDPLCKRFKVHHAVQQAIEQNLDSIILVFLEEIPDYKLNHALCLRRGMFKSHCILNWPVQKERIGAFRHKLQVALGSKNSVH
T1 sequence (O00206 whole entry): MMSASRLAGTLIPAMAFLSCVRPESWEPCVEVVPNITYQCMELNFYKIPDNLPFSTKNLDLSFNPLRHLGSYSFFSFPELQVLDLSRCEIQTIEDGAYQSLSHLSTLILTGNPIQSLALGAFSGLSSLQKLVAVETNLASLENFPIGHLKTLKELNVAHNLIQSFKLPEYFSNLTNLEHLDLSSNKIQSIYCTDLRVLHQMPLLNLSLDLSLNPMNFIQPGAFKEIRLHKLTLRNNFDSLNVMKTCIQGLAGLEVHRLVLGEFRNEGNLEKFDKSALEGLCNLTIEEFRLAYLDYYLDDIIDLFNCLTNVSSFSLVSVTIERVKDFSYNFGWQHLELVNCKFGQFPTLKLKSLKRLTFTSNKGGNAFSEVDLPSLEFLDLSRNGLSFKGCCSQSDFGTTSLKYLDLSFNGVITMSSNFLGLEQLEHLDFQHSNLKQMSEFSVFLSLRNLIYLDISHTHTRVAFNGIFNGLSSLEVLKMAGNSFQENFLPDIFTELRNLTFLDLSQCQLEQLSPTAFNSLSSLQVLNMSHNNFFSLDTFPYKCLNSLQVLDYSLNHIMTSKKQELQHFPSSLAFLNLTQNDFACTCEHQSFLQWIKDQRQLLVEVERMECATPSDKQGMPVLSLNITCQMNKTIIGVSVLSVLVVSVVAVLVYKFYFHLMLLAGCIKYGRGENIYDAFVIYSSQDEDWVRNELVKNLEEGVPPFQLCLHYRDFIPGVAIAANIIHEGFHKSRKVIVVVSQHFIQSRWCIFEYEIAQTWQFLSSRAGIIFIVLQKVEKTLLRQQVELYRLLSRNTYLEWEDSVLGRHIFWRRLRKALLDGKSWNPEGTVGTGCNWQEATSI

A word on the EC10: it is the concentration at which the effect reaches the 10% level. One may read the EC50 as the concentration that produces a half-maximal response. Consider `C[C@@H](OC(=O)c1ccccc1O)[C@]1(O)CC[C@@]2(O)[C@]1(C)[C@H](OC(=O)/C=C/c1ccccc1)C[C@@H]1[C@@]3(C)CC[C@H](O)CC3=CC[C@]12O`, for which the result in [1], in [2], in [11], in series [21], in [28] and in series [29] was Active. Further, the outcome in series [31] and in series [34] was Active. Further, the outcome in series [3] was inactive. The inhibition entry in series [4], in [6], in series [12], in series [15], in series [19] and in series [22] was “inactive” in each case. Besides, the inhibition entry in series [24] and in series [27] was “inactive” throughout. Also, the inhibition result in series [5], in series [8], in series [10], in [13], in [14] and in series [16] was “Active” each time. Further, the inhibition entry in series [17], in series [18], in series [20], in series [23], in [26] and in series [30] was “Active” in each case. In addition, the inhibition result in [32] and in series [33] was “Active” each time. Further, the CC10 in [7] was more than 10 µM. This molecule also registered an EC10 in series [9] of more than 10 µM. Also, in series [25], the EC50 amounted to 4.9 µM.
Take `CC(=O)[C@]1(OC(=O)c2ccccc2I)CC[C@@]2(O)[C@]1(C)[C@H](OC(=O)c1ccc(O)cc1)C[C@@H]1[C@@]3(C)CC[C@H](OC(=O)c4ccccc4I)CC3=CC[C@]12O`: the inhibition entry in series [17], in series [35] and in series [33] was “inactive” in each case. Further, the Activity result in series [36] was “Toxic”.

The record behind these values is ChEMBL document CHEMBL4033685, “C21-steroidal pregnane sapogenins and their derivatives as anti-inflammatory agents” (Bioorg Med Chem, 2017).
